How the values were obtained:
EGFR, ErbB2, and ErbB3 = assay: Western blot of ErbB family RTK glycosylation, phosphorylation and protein levels in glioma cells; type: cell-based
Description: In this study, the D54, SKMG3, U251, T98G and 42-MG glioma cell lines were used. The source of D54, SKMG3 and U251 cells has been described previously (Contessa at al., Clin Cancer Res., 16:3205-14 (2010), Lopez et al., Int J Radiat Oncol Biol Phys., 69:214-20 (2007)). The 42-MG and T98G cells were provided by Todd Waldman (Georgetown University) and Dr. Ranjit Bindra (Yale University), respectively. The cells were cultured in DMEM/F12 (D54 and T98G), DMEM (42-MG and U251) or RPMI 1640 (SKMG3)+10% FBS supplemented with penicillin and streptomycin (Gibco, Life Technologies, Grand Island, N.Y., US) in a humidified incubator with 5% CO2, and they were kept in culture no more than 6 months after resuscitation from the original stocks. […] Mycoplasma cell culture contamination was routinely checked and ruled out using a biochemical test (MycoAlert Mycoplasma Detection Kit from Lonza, Rockland, Me. USA). Tunicamycin was purchased from Calbiochem/EMD-millipore (Burlington, Mass., USA). Cetuximab and Erlotinib were purchased at Selleck Chemicals LLC (Houston, Tex., USA). Luciferin was supplied by Promega (Madison, Wis. USA). For in vitro experiments, radiation (XRT) was administered at room temperature using a Precision X-ray 320-kV orthovoltage unit at a dose rate of 2 Gy/45 seconds (PXI X-Ray Systems) with 2 mm aluminum filter. For in vivo studies, radiation was administered at room temperature using a Precision X-ray 250-kV orthovoltage unit at a dose rate of 6.42 Gy/min (PXI X-Ray Systems) with 2 mm aluminum filter. Quality Assurance for both irradiators was performed monthly using a P.T.W. 0.3 cm^3 Ionization Chamber calibrated to NIST standards and quarterly dosimetry using thermoluminescent dosimeter (TLD)-based or ferrous sulfate-based dosimeters.

D54 cells = assay: Radiation clonogenic survival assay; type: cell-based
Description: (§1) Radiation (XRT) doses of either 0, 2, 4, or 6 Gy were delivered with a Precision X-ray 320-kV orthovoltage unit at a dose rate of 2 Gy/45 seconds (PXI X-Ray Systems). Twenty-four hours following XRT cells were washed, trypsinized, and re-plated in triplicate wells to determine clonogenic survival. […] Growth rates were determined by CellTiter 96 Non-Radioactive Cell Proliferation Assay (Promega; Madison, Wis., USA) according to the manufacturer's directions. For each experiment one thousand cells were seeded in triplicate wells in 96-wells plates. The following day, cell cultures were treated with NGI-1 (1 μM), Temozolomide (TMZ, 10 μM), Etoposide (VP-16, 0.1 μM) or combinations for 5 days. Absorbance at 540 nm was measured using the spectrophotometric reading (BioTek Synergy 2; Winooski, Vt. USA).

T98G cells = assay: Radiation clonogenic survival assay; type: cell-based; details: 10 μM NGI-1
Description: as §1

U251 cells = assay: Radiation clonogenic survival assay; type: cell-based; details: 10 μM NGI-1
Description: as §1

H1975-OR cells = assay: Cell cycle distribution by flow cytometry; type: cell-based; details: NGI-1 for 24 h, printed 45% vs 75%, higher value taken as NGI-1
Description: (§2) For the assessment of cell cycle distribution, 1×10^6 cells were collected, washed once with ice-cold PBS and fixed in ice-cold 70% ethanol overnight at −20° C. Thereafter, cells were washed twice with PBS and incubated for 30 min at room temperature in 200 μL of Guava Cell Cycle Reagent (Guava Technologies). Cytofluorometric acquisitions were performed on a LSRII cytometer (BD Biosciences). First-line analysis was performed with Flow Jo software, upon gating of the events characterized by normal forward and side scatter parameters and discrimination of doublets in a FSC-A vs. FSC-H bivariate plot. Approximately 30,000 cells were analyzed per experiment, and the mean value was obtained from 3 independent assays.

H1975 = assay: Cell cycle distribution by flow cytometry; type: cell-based; details: NGI-1 for 24 h, printed 40% vs 60%, higher value taken as NGI-1
Description: as §2

HCC-827-GR cells = assay: Cell cycle distribution by flow cytometry; type: cell-based; details: NGI-1 for 24 h, printed 75% vs 45%
Description: as §2

PC9-GR1 = assay: Cell cycle distribution by flow cytometry; type: cell-based; details: NGI-1 for 24 h, printed 60% vs 40%
Description: as §2

PC9-GR2 = assay: Cell cycle distribution by flow cytometry; type: cell-based; details: NGI-1 for 24 h, printed 80% vs 60%
Description: as §2

EGFR = molecular target: T1, EGFR (Homo sapiens, UniProt P00533, DEL746-750); type: cell-based; details: HCC827-GR cells
T1 construct: endogenous in cells; host or cells: HCC827-GR NSCLC cells (MET amplified)
Description: Immunoprecipitation of EGFR was performed on whole cell lysate of intact HCC827 and HCC827-GR cell monolayers using Protein A magnetic beads (Cell Signaling) to isolate EGFR coupled to rabbit anti-EGFR (1:100) antibody from Cell Signaling (Danvers, Mass., USA). Equilibrated Protein A magnetic beads equilibrated with a whole cell lysate were used as negative controls for non-specific protein binding. […] The nitrocellulose-bound primary antibodies, were detected with anti-rabbit IgG horseradish peroxidase-linked antibody or anti-mouse IgG horseradish peroxidase-linked antibody (EMD Millipore; Temecula, Calif. USA), and were detected by the enhanced chemoluminescence staining ECL (GE Healthcare-Amersham Pharmacia, Buckinghamshire, U.K.).

PC9-ERLucT cells = assay: ER-LucT glycosylation reporter luciferase assay in vitro; type: cell-based; details: after 24 h, equivalent concentrations of NGI-1 dissolved in DMSO or via NP
Description: To test the hypothesis that NGI-1 could enhance TKI therapy in EGFR mutant and TKI resistant NSCLC, a NGI-1 nanoparticle (NGI-NP) formulation was developed by nanoprecipitation of a NGI-1 PEI complex. All nanoparticle preparations were confirmed by DLS and the average particle size was 120±10 nm. To assess the activity of the NGI-1 NPs a PC9 cell line with stable expression of the ER-LucT glycosylation reporter (Contessa at al., Clin Cancer Res., 16(12):3205-14 (2010)), a luciferase engineered to be expressed in the endoplasmic reticulum with N-linked glycosylation sites, was established. Under normal cell conditions glycosylation of the luciferase blocks activity and luminescence. However, under conditions of decreased glycosylation luciferase activity is restored with a measurable increase in luciferase activity. Equivalent concentrations of NGI-1, either dissolved in DMSO or via NP, activated luminescence˜6 fold after 24 h in these PC9-ERLucT cells in vitro (FIG. 13A).

H3255 = details: Lopez-Sambrooks et al., Nat Chem Biol. 2016; cited from earlier work

Cc1cnc(NC(=O)c2cc(S(=O)(=O)N(C)C)ccc2N2CCCC2)s1 [NGI-1, 5-(dimethylsulfamoyl)-N-(5-methyl-1,3-thiazol-2-yl)-2-(pyrrolidin-1-yl)benzamide]
ErbB3 protein levels (EGFR, ErbB2, and ErbB3; D54 and SKMG3 cell lines): reduction of ErbB3 protein levels
ErbB2 protein levels (EGFR, ErbB2, and ErbB3; SKMG3): reduction in ErbB2 protein levels
EGFR protein levels (as cause of reduced EGFR phosphorylation) (EGFR, ErbB2, and ErbB3; SKMG3 and D54 cell lines): not caused by decreases in EGFR protein levels
glycosylation of EGFR, ErbB2, and ErbB3 (protein gel mobility on western blot) (EGFR, ErbB2, and ErbB3; SKMG3 and D54 cell lines): reduced glycosylation
phosphorylation of EGFR, ErbB2, and ErbB3 (EGFR, ErbB2, and ErbB3; SKMG3 and D54 cell lines): reduced
dose enhancement factor (DEF) at a surviving fraction of 0.4 (D54 cells; 10 μM NGI-1): 1.3
survival fraction at 2 Gy (SF2Gy) (D54 cells; 10 μM NGI-1 48 hours before radiation, 69% without NGI-1): 51%
effect on SF2Gy (T98G cells): unaffected
effect on SF2Gy (U251 cells): unaffected
cells in G1 (G1 arrest) (H1975-OR cells): 75%
cells in G1 (G1 arrest) (H1975): 60%
cells in G1 (G1 arrest) (HCC-827-GR cells): 75%
cells in G1 (G1 arrest) (PC9-GR1): 60%
cells in G1 (G1 arrest) (PC9-GR2): 80%
EGFR phosphorylation (EGFR): significantly reduced
activation of luminescence (luciferase activity) (PC9-ERLucT cells): ~6 fold
H3255 proliferation (H3255): significantly inhibits

Reference: patent US10765638B2, “Particle formulation with polycation complex” (Yale University, priority 2017, dated 2020)
